Measured values: patent US5169984A, “Synthesis and characterization of N-bromoacetyl-3,3'5-triiodo-L-thyronine using high speed countercurrent chromatography” (The United States of America as represented by the …, priority 1990, dated 1992)

Conditions: crude, prior to HSCCC; ethyl acetate, well-sealed container, -20° C., over four months
Description: Chromatograms were monitored by radioactivity. In FIG. 2A the sample was freshly prepared while in FIG. 2B the sample was stored for 4.2 months in ethyl acetate at -20° C. […] Other conditions were the same as in FIGS. 1A and 1B.

decomposition on storage: partial decomposition
SMILES: O=C(CBr)N[C@@H](Cc1cc(I)c(Oc2ccc(O)c(I)c2)c(I)c1)C(=O)O [BrAc[^125 I]T3, ^125 I-labeled N-bromoacetyl-3,3',5-triiodo-L-thyronine]
